For one data set, the system named is Caco-2 cells. The experiment in a line: Caco-2 bidirectional permeability. It counts as in vitro ADME. Particulars: for Caco-2 A2B (10^−6 cm/s): A to B; for Caco-2 A2B (10^−6 cm/s) / Caco-2 B2A (10^−6 cm/s): HBSS pH 7.4, 2 hours; for Caco-2 B2A (10^−6 cm/s): B to A; for Caco-2 ER: Efflux Ratio=Papp (BA)/Papp (AB). The method, then:
The compounds disclosed herein were tested in vitro on CaCo2 cell penetration according to the following procedures.
Test compounds were prepared in dimethyl sulfoxide (DMSO).
Caco-2 cells purchased from ATCC were seeded onto […] (PET) in 96-well Corning Insert plates at 1×10^5 cells/cm^2. The media were refreshed every 4 to 5 days until the 21st to 28th day for confluent cell monolayer formation.
Experiments were run in duplicate using a HBSS transport buffer containing 10 mM HEPES at pH 7.4. The test article TEST COMPOUND was tested bi-directionally at […] concentrations, the control compound digoxin was tested bi-directionally at 10 μM, and nadolol and metoprolol were tested at 2.0 μM in the A to B direction. Final DMSO concentrations were adjusted to less than 1%. The plates were incubated for 2 hours in a CO2 incubator at 37±1° C. with 5% CO2 at saturated humidity without shaking. Following incubation, samples were mixed with acetonitrile containing internal standard and centrifuged at 3200×g for 10 minutes. Then 200 μL of supernatant was taken from all samples. For TEST COMPOUND and digoxin, the supernatant was diluted with 200 μL of ultra-pure water and for nadolol and metoprolol, the supernatant was diluted with 600 μL of ultra-pure water. All samples were analyzed by LC-MS/MS. Concentrations of TEST COMPOUND and control compounds were determined in starting solutions, donor well solutions, and receiver well solutions using peak area ratios (PAR) of analyte to internal standard. After the transport assay, a lucifer yellow rejection assay was run to determine the Caco-2 cell monolayer integrity.
The apparent permeability (Papp), the % recovery and the efflux ratio were calculated as follows: • 1. Papp=(dCr/dt)×Vr/(A×C0) • 2. % Recovery=100×[(Vr×Cr)+(Vd×Cd)]/(Vd×C0) • 3. Efflux Ratio=Papp (BA)/Papp (AB) • Where: • dCr/dt is the slope of the cumulative concentration in the receiver compartment versus time (mM/s). • Vr and Vd is the volume in the receiver and donor compartments (0.075 mL on the apical side, 0.25 mL on the basolateral side), respectively. • A is the surface area of the cell monolayer (0.0804 cm^2). • C0 is the measured donor concentrations (μM) at the beginning of the experiment. • Cd and Cr are the final measured concentrations in the donor and receiver compartments, respectively.
The cell monolayer tight junction integrity assay was conducted after completion of the transport assay by adding Lucifer Yellow (LY) to the apical wells at 100 μM and incubating the cells for 30 minutes. Following incubation, tight junction integrity was assessed from LY concentrations in the basolateral compartment (receiver well) and the apical compartment (donor well) using fluorescence detection as follows: […]
(In general: Caco-2 monolayers are a common model of the intestinal barrier.)

Data set [1] concerns the target T1, wt human LRRK2, catalytic site (Homo sapiens, UniProt Q5S007).
T1 construct: wt human LRRK2, catalytic site, catalytic site (ThermoFisher/USA); purchased ThermoFisher
The data set can be described thus: TR-FRET LanthaScreen Tb Kinase Activity Assay, LRRK2 kinase inhibition. Type of data set: biochemical. Conditions: 2 nM wt human LRRK2, 400 nM peptide, 38 μM ATP. The method, then: The compounds disclosed herein were tested for their inhibitory effect on LRRK2 kinase according to the following procedures.
The protocol for basic TR-FRET LanthaScreen Tb Kinase Activity Assay inhibitor studies is as follows. LanthaScreen Kinase Activity Assays (ThermoFisher/USA) to evaluate inhibitors were performed by addition of 100 nL of test compound in the corresponding DMSO dilutions/5 L of kinase/fluorescein-ERM(LRRKtide) peptide mixture, Compound & kinase were pre-incubated for 15 minutes, then 5 μl of ATP into 384 well small volume plates. After incubation for 120 minutes at room temperature, the detection reagents containing Tb-anti-pLRRKtide antibody were added to monitor the phosphrylation level of peptide. Then, after 60 min minutes incubation at room temperature plates were read in Envision. Data analysis of emission ratios was according to the LanthaScreen Tb Kinase Activity Assay protocol.
Kinase and assay components were adjusted to final concentrations according to the kit protocol. For LRRK2: 2 nM wt human LRRK2, catalytic site, catalytic site (ThermoFisher/USA), 400 nM peptide, 38 μM ATP in 1× Kinase Buffer A.
Basic protocol for TR-FRET LanthaScreen Tb Kinase Activity Assay inhibitor studies involved two steps: Enzymatic step: Addition of 100 nl of test compound in corresponding DMSO dilutions, 5 μl of kinase/substrate mixture, 5 μl of ATP into 384 well small volume plates. Incubation for 120 minutes at room temperature.
Detection step: Addition of 10 μl EDTA & antibody, read plate after 60 minutes. Data analysis of emission ratios according to KinEASE assay protocol.
Kinase and assay components were adjusted to final concentrations according to the kit protocol.
On the technique in general: In TR-FRET formats the signal depends on donor and acceptor labels being close together.

Data set [2] in a line: Human liver microsomal clearance (hLM Cl). It counts as in vitro ADME. Particulars: cells marked *. In general terms: Liver microsomes are vesicles of endoplasmic reticulum, rich in cytochrome P450 enzymes.
The nature of data set [3]: Human hepatocyte stability, in vitro h-Hept CLpredict. It counts as in vitro ADME. Particulars: cryopreserved hepatocytes, predicted hepatic clearance, cells without asterisk, read-out: hHep Cl. The method, then:
The compounds disclosed herein were tested in vitro on human hepatocyte for in vitro h-Hept CLpredict according to the following procedures. • 1. Compound sock solutions were prepared by dissolving test compound and positive control in dimethyl sulfoxide (DMSO) at a concentration of 10 mM. Stock solutions were then diluted to 100 μM solutions by combining 198 μL of 50% acetonitrile/50% water with 2 μL of the 10 mM stock stock in separate conical tubes. • 2. Cryopreserved hepatocytes were prepared as follows: Incubation medium (William's E Medium supplemented with GlutaMAX) and hepatocyte thawing medium were placed in a 37° C. water bath and allowed to warm for at least 15 minutes prior to use. Cryopreserved hepatocytes were removed from storage, ensuring that vials remained at cryogenic temperatures until thawed. Cells were thawed by placing the vials in a 37° C. water bath and gently shaking the vials for 2 minutes. After thawing was completed, vials were sprayed with 70% ethanol and transferred to a biosafety cabinet. Hepatocytes were transferred into 50 mL conical tube containing thawing medium using wide-bore pipette tips. Tubes were placed into a centrifuge and spun at 100 g for 10 minutes. Then thawing medium was aspirated and hepatocytes were resuspended in enough incubation medium to yield−1.5×10^6 cells/mL. Cells were counted using acridine orange and propidium iodide (AO/PI) staining, and the viable cell density was determined. Cells were diluted with incubation medium to a working cell density of 0.5×10^6 viable cells/mL. • 3. To determine hepatocyte stability, 198 μL of hepatocytes were transferred into each well of a 96-well non-coated plate. Plates were placed in an incubator to allow the hepatocytes to warm for 10 minutes. • 4. The reaction was started by transferring 2 μL of the 100 μM test compound or positive control solution into respective wells of the 96-well non-coated plates. Plates were returned to the incubator until 25 μL aliquots of well contents were sampled at time points of 0, 15, 30, 60, 90 and 120 minutes. The aliquots were then mixed with 6 volumes (150 μL) of acetonitrile containing internal standard, IS (100 nM alprazolam, 200 nM caffeine and 100 nM tolbutamide) to terminate the reaction and vortexed for 5 minutes. After centrifuging the samples for 45 minutes at 3,220 g, aliquots of 100 μL of the supernatant were taken and diluted with 100 μL of ultra-pure water. The mixture was used for LC/MS/MS analysis. All incubations were performed in duplicate.
All calculations were carried out using Microsoft Excel. Peak area ratios (PAR) were determined from extracted ion chromatograms. The in vitro half-life (t1/2) of parent compound was determined by regression analysis of the percent parent disappearance vs. time curve as follows:
The in vitro half-life (in vitro t1/2) was determined from the slope value:
Conversion of the in vitro t1/2 (in minutes) into the in vitro intrinsic clearance (in vitro CLint, in μL/min/1×10^6 cells) was done using the following equation (mean of duplicate determinations): […]
The scaled-up intrinsic clearance (CLint, mL/min/kg), predicted hepatic clearance (CLH, mL/min/kg) and hepatic extraction ratio (ER) were calculated using the following equations:
CLint=(0.693/t1/2)*(1/(hepatocyte concentration (0.5*10^6 cells/mL))*scaling factors (Table (A)
• CLHept-predict=(QH*Scaled-up CLint*fub)/(QH+Scaled-up CLint*fub) • ER=CLH/QH • Where: • V=incubation volume (0.2 mL) • N=number of hepatocytes per well (0.1*10^6 cells) • QH=hepatic blood flow (mL/min/kg) (Table (A)
• fub=fraction of unbound drug in plasma, assumed to be 1 • Values used for calculation of the predicted hepatic clearance parameters data processing rules are outlined in the following tables (A) (B)

SMILES strings stand for the structures.

Consider 7 molecules from patent publication US20240208972A1, “LRRK2 INHIBITORS AND USES THEREOF” (NEURON23, INC., priority 2022, published 2024).

Broadly, the IC50 is the concentration that inhibits the measured activity by half.

T1 sequence (Q5S007 1879-2138 limits assumed): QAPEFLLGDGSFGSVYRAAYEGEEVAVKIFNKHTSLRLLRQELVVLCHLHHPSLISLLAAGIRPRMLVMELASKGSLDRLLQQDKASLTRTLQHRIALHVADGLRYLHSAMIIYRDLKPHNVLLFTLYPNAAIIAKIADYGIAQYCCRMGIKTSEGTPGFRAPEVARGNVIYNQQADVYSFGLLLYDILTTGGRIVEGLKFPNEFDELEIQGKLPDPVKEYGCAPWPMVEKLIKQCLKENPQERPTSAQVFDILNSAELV

Take `Cc1n[nH]c2c1N=C(c1c(F)cccc1F)Nc1c-2cc(N2CCOCC2)nc1C(F)(F)F` [Example 4, 4-[8-(2,6-difluorophenyl)-5-methyl-11-(trifluoromethyl)-3,4,7,9,12-pentazatricyclo[8.4.0.02,6]tetradeca-1(10),2(6),4,7,11,13-hexaen-13-yl]morpholine]: in the data set on Caco-2 cells, the “Caco-2 A2B (10^−6 cm/s)” value is given as “M (M (Moderate permeability)”: 1≤A2B (B2A)≤5)”, the “Caco-2 B2A (10^−6 cm/s)” value is listed as “L (L (Low permeability)”: A2B(B2A)<1)” and the “Caco-2 ER” value is “N (N (Non-substrate)”: ER<2.5)”. Further, the half-inhibitory concentration (IC50) in data set [1] fell in the range of 2 to 100 nM. Further, in data set [2], the “hLM Cl (mL/min/kg)” value is “I* (I (Intermediate C1)”: 6.3 mL/min/kg≤Hep Cl≤14.7 mL/min/kg)”.

Regarding `Cc1n[nH]c2c1N=C(c1c(F)cccc1F)Nc1c-2cc(N2CCO[C@@H](COC(F)(F)F)C2)nc1C` [Example 48, (R)-4-(5-(2,6-difluorophenyl)-3,7-dimethyl-1,6-dihydropyrazolo[4,3-d]pyrido[4,3-f][1,3]diazepin-9-yl)-2-((trifluoromethoxy)methyl)morpholine], in the data set with Caco-2 cells, the “Caco-2 A2B (10^−6 cm/s)” value is given as “M (M (Moderate permeability)”: 1≤A2B (B2A)≤5)”, the “Caco-2 B2A (10^−6 cm/s)” value is given as “M (M (Moderate permeability)”: 1≤A2B (B2A)≤5)” and the “Caco-2 ER” value is on record as “N (N (Non-substrate)”: ER<2.5)”. Moreover, the IC50 in data set [1] was below 2 nM. Moreover, the “hLM Cl (mL/min/kg)” value in data set [2] is “I* (I (Intermediate C1)”: 6.3 mL/min/kg≤Hep Cl≤14.7 mL/min/kg)”.

Consider `Cc1n[nH]c2c1N=C(c1c(F)cccc1F)Nc1c-2cc(N2CCC[C@@]3(CCOC3)C2)nc1C` (single isomer, unassigned) [Example 50], for which, in the data set with Caco-2 cells, the “Caco-2 A2B (10^−6 cm/s)” value is listed as “H (H (High permeability)”: A2B (B2A)>5)”, the “Caco-2 B2A (10^−6 cm/s)” value was “H (H (High permeability)”: A2B (B2A)>5)” and the “Caco-2 ER” value was “N (N (Non-substrate)”: ER<2.5)”. In data set [1], this molecule yielded a 50% inhibitory concentration (IC50) below 2 nM. In data set [2], the “hLM Cl (mL/min/kg)” value is “I* (I (Intermediate C1)”: 6.3 mL/min/kg≤Hep Cl≤14.7 mL/min/kg)”.

As for `Cc1n[nH]c2c1N=C(c1c(F)cccc1F)Nc1c-2cc(N2CCC(C)(C#N)CC2)nc1C` [Example 43, 1-[8-(2,6-difluorophenyl)-5,11-dimethyl-3,4,7,9,12-pentazatricyclo[8.4.0.02,6]tetradeca-1(10),2(6),4,7,11,13-hexaen-13-yl]-4-methyl-piperidine-4-carbonitrile], in the data set on Caco-2 cells, the “Caco-2 A2B (10^−6 cm/s)” value is “H (H (High permeability)”: A2B (B2A)>5)”, the “Caco-2 B2A (10^−6 cm/s)” value was “H (H (High permeability)”: A2B (B2A)>5)” and the “Caco-2 ER” value is listed as “N (N (Non-substrate)”: ER<2.5)”. Further, the IC50 in data set [1] was below 2 nM. Further, the CLhep predicted at 1 µM in data set [3] was 6.3 to 14.7 mL/min/kg.

Take `Cc1ccc(-c2ccc3c(c2)-c2[nH]nc(C)c2N=C(c2c(F)cccc2F)N3)cn1` [Example 53, 5-(2,6-difluorophenyl)-3-methyl-9-(6-methyl-3-pyridyl)-1,6-dihydropyrazolo[4,3-d][1,3]benzodiazepine]: in the data set on Caco-2 cells, the “Caco-2 A2B (10^−6 cm/s)” value is reported as “H (H (High permeability)”: A2B (B2A)>5)”, the “Caco-2 B2A (10^−6 cm/s)” value was “H (H (High permeability)”: A2B (B2A)>5)” and the “Caco-2 ER” value is “N (N (Non-substrate)”: ER<2.5)”. For the same molecule, in data set [1], the IC50 was below 2 nM. Further, in data set [3], the CLhep predicted at 1 µM is 6.3 to 14.7 mL/min/kg.

On to `Cc1n[nH]c2c1N=C(c1c(F)cccc1F)Nc1cnc(-n3ccc(C(F)(F)F)n3)cc1-2` [Example 15, 8-(2,6-difluorophenyl)-5-methyl-13-[3-(trifluoromethyl)pyrazol-1-yl]-3,4,7,9,12-pentazatricyclo[8.4.0.02,6]tetradeca-1(10),2(6),4,7,11,13-hexaene], for which, in the data set with Caco-2 cells, the “Caco-2 A2B (10^−6 cm/s)” value is “M (M (Moderate permeability)”: 1≤A2B (B2A)≤5)”, the “Caco-2 B2A (10^−6 cm/s)” value is “M (M (Moderate permeability)”: 1≤A2B (B2A)≤5)” and the “Caco-2 ER” value is “N (N (Non-substrate)”: ER<2.5)”. In data set [1], this molecule gave an IC50 below 2 nM. The CLhep predicted at 1 µM in data set [3] is 6.3 to 14.7 mL/min/kg.

In the case of `Cc1n[nH]c2c1N=C(c1c(F)cccc1F)Nc1cnc(-n3ccc(C#N)n3)cc1-2` [Example 57, 1-[8-(2,6-difluorophenyl)-5-methyl-3,4,7,9,12-pentazatricyclo [8.4.0.02,6]tetradeca-1(10),2(6),4,7,11,13-hexaen-13-yl]pyrazole-3-carbonitrile], in the data set with Caco-2 cells, the “Caco-2 A2B (10^−6 cm/s)” value was “H (H (High permeability)”: A2B (B2A)>5)”, the “Caco-2 B2A (10^−6 cm/s)” value is reported as “H (H (High permeability)”: A2B (B2A)>5)” and the “Caco-2 ER” value is “N (N (Non-substrate)”: ER<2.5)”. In addition, in data set [1], the IC50 lay within 2 to 100 nM. In addition, the CLhep predicted at 1 µM in data set [3] is 6.3 to 14.7 mL/min/kg.
